Results from patent publication US20050215614A1, “Substituted indoles and their use as hcv inhibitors” (Rigel Pharmaceuticals, Inc., priority 2003, published 2005).

system: HCV replicon; assay: HCV Replicon Assay (luciferase, 5-2 Luc replicon cells); assay type: cell-based; conditions: 5-2 Luc replicon cells (Huh7), 24-48 hours with compound, luciferase counts
Protocol: Actively dividing 5-2 Luc replicon cells were seeded at the density of 5000-7500 cells/well in the volume of 90 μl/well into 96 well plate(s). The cells were then incubated at 37° C. and 5% CO2 for 24 hours. The 5-2 cells are replicon cells licensed from Ralf Bartenschlager (Germany) and have a self-replicating RNA molecule in the Huh7 cell; the RNA contains HCV non-structural proteins that make the self-replication possible.
Various concentrations of compounds (in the volume of 10 μl) were added into each well 24 hours after seeding the cells. The cells were incubated for another 24-48 hours before luciferase assay.
After incubating the 5-2 Luc replicon cells with the compounds for 24-48 hours, media were aspirated from each well and Bright-Glo (Promega) luciferase assay reagents were added to each well according to the manufacturer′s manual. Briefly, the Bright-Glo reagent was diluted with equal volume of PBS and an aliquote (100 μl) was added to each well. After incubating the plate at room temperature for 5 minutes, luciferase counts were taken using a luminometer.

Structure (SMILES)	Activity (concentration of inhibitory activity)
CC(C)(C)c1cc2cc(NC(=O)Cc3cccc4ccccc34)ccc2[nH]1 [Compound 5a, 2-t-Butyl-5-(naphth-1-yl-ethanoyl)aminoindole]	b (“b” indicates activity is at a concentration greater than 10 micromolar)
CC(C)(C)c1cc2cc(NC(=O)Cc3cccc([N+](=O)[O-])c3)ccc2[nH]1 [Compound 5b, 2-t-Butyl-5-(3-nitrophenylethanoyl)aminoindole]	b (“b” indicates activity is at a concentration greater than 10 micromolar)
CC(C)(C)c1cc2cc(NC(=O)C3CCCC3)ccc2[nH]1 [Compound 5c, 2-t-Butyl-5-(cyclopentanecarbonyl)aminoindole]	a (“a” indicates inhibitory activity at a concentration of less than 10 micromolar)
CC(C)(C)c1cc2cc(NC(=O)C3(c4ccc(Cl)cc4)CCCC3)ccc2[nH]1 [Compound 5d, 2-t-Butyl-5-(1-(4chlorophenyl)-1-cyclopentanecarbonyl)aminoindole]	b (“b” indicates activity is at a concentration greater than 10 micromolar)
CC(C)(C)c1cc2cc(NC(=O)c3c(F)cccc3F)ccc2[nH]1 [Compound 5e, 2-t-Butyl-5-(2′,6′-difluorophenylcarbonyl)aminoindole]	a (“a” indicates inhibitory activity at a concentration of less than 10 micromolar)
CC(C)(C)c1cc2cc(NC(=O)c3ccc(Cl)cc3Cl)ccc2[nH]1 [Compound 5f, 2-t-Butyl-5-(2′,4′-dichlorophenylcarbonyl)aminoindole]	a (“a” indicates inhibitory activity at a concentration of less than 10 micromolar)
Cc1ccsc1C(=O)Nc1ccc2[nH]c(C(C)(C)C)cc2c1 [Compound 5g, 2-t-Butyl-5-(3-methylthiophene-2-carbonyl)aminoindole]	a (“a” indicates inhibitory activity at a concentration of less than 10 micromolar)
CC(C)(C)c1cc2cc(NC(=O)C(Cl)Cl)ccc2[nH]1 [Compound 5h, 2-t-Butyl-5-dichloroacetamidoindole]	a (“a” indicates inhibitory activity at a concentration of less than 10 micromolar)
Cc1cn(C(=O)c2c(Cl)cccc2Cl)c2ccc(NC(=O)C3CCCC3)cc12 [Compound 9a, 5-(Cyclopentanecarbonyl)amino-1-(2′,6′-dichlorobenzoyl)-3-methylindole]	a (“a” indicates inhibitory activity at a concentration of less than 10 micromolar)
CCCC(=O)Nc1ccc2c(c1)c(C)cn2C(=O)c1c(Cl)cccc1Cl [Compound 9b, 1-(2′,6′-Dichlorobenzoyl)-3-methyl-5-(n-propanecarbonyl)aminoindole]	a (“a” indicates inhibitory activity at a concentration of less than 10 micromolar)
Cc1cn(C(=O)c2c(Cl)cccc2Cl)c2ccc(NC(=O)C3CCC3)cc12 [Compound 9c, 5-(Cyclobutanecarbonyl)amino-1-(2′,6′-dichlorobenzoyl)-3-methylindole]	a (“a” indicates inhibitory activity at a concentration of less than 10 micromolar)
Cc1cn(C(=O)c2c(Cl)cccc2Cl)c2ccc(NC(=O)C3CC3)cc12 [Compound 9d, 5-(Cyclopropanecarbonyl)amino-1-(2′,6′-dichlorobenzoyl)-3-methylindole]	a (“a” indicates inhibitory activity at a concentration of less than 10 micromolar)
CCCCC(=O)Nc1ccc2c(c1)c(C)cn2C(=O)c1c(Cl)cccc1Cl [Compound 9e, 5-(n-Butanecarbonyl)amino-1-(2′,6′-dichlorobenzoyl)-3-methylindole]	a (“a” indicates inhibitory activity at a concentration of less than 10 micromolar)
C/C=C/C(=O)C(=O)Nc1ccc2c(c1)c(C)cn2C(=O)c1c(Cl)cccc1Cl [Compound 9f, 5-(trans-Crotonylcarbonyl)amino-1-(2′,6′-dichlorobenzoyl)-3-methylindole]	a (“a” indicates inhibitory activity at a concentration of less than 10 micromolar)
Cc1c(C)n(C(=O)c2c(Cl)cccc2Cl)c2ccc(NC(=O)C3CCCCC3)cc12 [Compound 13a, 5-(Cyclohexanecarbonyl)amino-1-(2′,6′-dichlorobenzoyl)-2,3-dimethylindole]	a (“a” indicates inhibitory activity at a concentration of less than 10 micromolar)
Cc1c(C)n(C(=O)c2c(Cl)cccc2Cl)c2ccc(NC(=O)C3CCCC3)cc12 [Compound 13b, 5-(Cyclopentanecarbonyl)amino-1-(2′,6′-dichlorobenzoyl)-2,3-dimethylindole]	a (“a” indicates inhibitory activity at a concentration of less than 10 micromolar)

Structure (SMILES)	Activity (concentration of inhibitory activity)
Cc1c(C)n(C(=O)c2c(Cl)cccc2Cl)c2ccc(NC(=O)C3CCC3)cc12 [Compound 13c, 5-(Cyclobutanecarbonyl)amino-1-(2′,6′-dichlorobenzoyl)-2,3-dimethylindole]	a (“a” indicates inhibitory activity at a concentration of less than 10 micromolar)
Cc1c(C)n(C(=O)c2c(Cl)cccc2Cl)c2ccc(NC(=O)C3CC3)cc12 [Compound 13d, 5-(Cyclopropanecarbonyl)amino-1-(2′,6′-dichlorobenzoyl)-2,3-dimethylindole]	a (“a” indicates inhibitory activity at a concentration of less than 10 micromolar)
CCCCC(=O)Nc1ccc2c(c1)c(C)c(C)n2C(=O)c1c(Cl)cccc1Cl [Compound 13e, 5-(n-Butanecarbonyl)amino-1-(2′,6′-dichlorobenzoyl)-2,3-dimethylindole]	a (“a” indicates inhibitory activity at a concentration of less than 10 micromolar)
Cc1cc2cc(NC(=O)C3CCCCC3)ccc2n1C(=O)c1c(Cl)cccc1Cl [Compound 16a-2, 5-Cyclohexanecarbonylamino-1-(2′,6′-dichlorobenzoyl)-2-methylindole]	a (“a” indicates inhibitory activity at a concentration of less than 10 micromolar)
Cc1cc2cc(NC(=O)C3CCC3)ccc2n1C(=O)c1c(Cl)cccc1Cl [Compound 16a-3, 5-Cyclobutanecarbonylamino-1-(2′,6′-dichlorobenzoyl)-2-methylindole]	a (“a” indicates inhibitory activity at a concentration of less than 10 micromolar)
Cc1cc2cc(NC(=O)C3CC3)ccc2n1C(=O)c1c(Cl)cccc1Cl [Compound 16a-4, 5-Cyclopropanecarbonylamino-1-(2′,6′-dichlorobenzoyl)-2-methylindole]	a (“a” indicates inhibitory activity at a concentration of less than 10 micromolar)
Cc1cc2cc(NC(=O)C(C)C)ccc2n1C(=O)c1c(Cl)cccc1Cl [Compound 16a-5, 1-(2′,6′-Dichlorobenzoyl)-5-(2-methylpropanoyl)amino-2-methylindole]	a (“a” indicates inhibitory activity at a concentration of less than 10 micromolar)
CCC(C)C(=O)Nc1ccc2c(c1)cc(C)n2C(=O)c1c(Cl)cccc1Cl (stereo not shown) [Compound 16a-6, 1-(2′,6′-Dichlorobenzoyl)-5-(2-methylbutanoyl)amino-2-methylindole]	a (“a” indicates inhibitory activity at a concentration of less than 10 micromolar)
CCCCC(=O)Nc1ccc2c(c1)cc(C)n2C(=O)c1c(Cl)cccc1Cl [Compound 16a-7, 1-(2′,6′-Dichlorobenzoyl)-5-(n-pentanoyl)amino-2-methylindole]	a (“a” indicates inhibitory activity at a concentration of less than 10 micromolar)
C/C=C/C(=O)Nc1ccc2c(c1)cc(C)n2C(=O)c1c(Cl)cccc1Cl [Compound 16a-8, 5-(trans-Crotonyl)amino-1-(2′,6′-dichlorobenzoyl)-2-methylindole]	a (“a” indicates inhibitory activity at a concentration of less than 10 micromolar)
CCC(CC)C(=O)Nc1ccc2c(c1)cc(C)n2C(=O)c1c(Cl)cccc1Cl [Compound 16a-9, 1-(2′,6′-Dichlorobenzoyl)-5-(2-ethylbutanoyl)amino-2-methylindole]	a (“a” indicates inhibitory activity at a concentration of less than 10 micromolar)
Cc1cc2cc(NC(=O)c3cccnc3)ccc2n1C(=O)c1c(Cl)cccc1Cl [Compound 16a-10, 1-(2′,6′-Dichlorobenzoyl)-5-(3-pyridylcarbonyl)amino-2-methylindole]	a (“a” indicates inhibitory activity at a concentration of less than 10 micromolar)
Cc1ccsc1C(=O)Nc1ccc2c(c1)cc(C)n2C(=O)c1c(Cl)cccc1Cl [Compound 16a-11, 1-(2′,6′-Dichlorobenzoyl)-5-(3-methyl-2-thiophenylcarbonyl)amino-2-methylindole]	a (“a” indicates inhibitory activity at a concentration of less than 10 micromolar)
COc1cscc1C(=O)Nc1ccc2c(c1)cc(C)n2C(=O)c1c(Cl)cccc1Cl [Compound 16a-12, 1-(2′,6′-Dichlorobenzoyl)-5-(4-methoxy-3-thiophenylcarbonyl)amino-2-methylindole]	a (“a” indicates inhibitory activity at a concentration of less than 10 micromolar)
Cc1cc2cc(NC(=O)Cc3cccnc3)ccc2n1C(=O)c1c(Cl)cccc1Cl [Compound 16a-13, 1-(2′,6′-Dichlorobenzoyl)-5-(3-pyridyl-2-acetamido)-2-methylindole]	a (“a” indicates inhibitory activity at a concentration of less than 10 micromolar)
